We go through five compounds from ChEMBL document CHEMBL5634153, “Design, synthesis and preclinical evaluation of muscarine receptor antagonists via a scaffold-hopping approach” (Eur J Med Chem, 2023).

Active and inactive are the calls of the source. The calls are words filed in the database; no cut-off is given here.

For data set [1], the target named is T1, Muscarinic acetylcholine receptor M2 (Homo sapiens, UniProt P08172).
T1 sequence (P08172 whole entry): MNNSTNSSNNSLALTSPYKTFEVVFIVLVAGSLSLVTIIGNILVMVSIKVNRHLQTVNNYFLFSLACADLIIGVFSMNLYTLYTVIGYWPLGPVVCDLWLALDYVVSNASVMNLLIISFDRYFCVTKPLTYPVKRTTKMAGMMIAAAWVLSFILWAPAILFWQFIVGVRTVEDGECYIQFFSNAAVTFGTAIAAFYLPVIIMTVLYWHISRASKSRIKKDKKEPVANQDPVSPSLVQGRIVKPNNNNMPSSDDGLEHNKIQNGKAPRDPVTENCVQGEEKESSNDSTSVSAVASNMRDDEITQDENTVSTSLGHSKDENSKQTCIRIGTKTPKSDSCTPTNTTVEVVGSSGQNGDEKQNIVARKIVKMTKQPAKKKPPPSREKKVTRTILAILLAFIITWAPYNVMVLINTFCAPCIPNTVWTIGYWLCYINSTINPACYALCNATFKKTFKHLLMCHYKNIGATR
Put plainly: Displacement of [3H]NMS from human muscarinic M2 receptor expressed in CHO-K1 cell membrane assessed as inhibition constant incubated for 90 mins by competitive radioligand binding assay. In kind it is cell membranes.

The species named for data set [2] is Homo sapiens. Put plainly: Selectivity ratio of Ki for human muscarinic M4 receptor expressed in CHO-K1 cells to Ki for human muscarinic M5 receptor expressed in CHO-K1 cells. The format is cell-based.
For data set [3], the target named is Muscarinic acetylcholine receptor M3 (Homo sapiens, UniProt P20309). Put plainly: Displacement of [3H]NMS from human muscarinic M3 receptor expressed in CHO-K1 cell membrane assessed as inhibition constant incubated for 90 mins by competitive radioligand binding assay. In kind it is cell membranes. On the technique in general: Displacement assays read how much labelled ligand stays bound in the presence of the test substance.

For data set [4], the species on record is Homo sapiens. Nature of the data set: Selectivity ratio of Ki for human muscarinic M3 receptor expressed in CHO-K1 cells to Ki for human muscarinic M5 receptor expressed in CHO-K1 cells. The format is cell-based.
Data set [5] concerns the target T2, Muscarinic acetylcholine receptor M1 (Homo sapiens, UniProt P11229).
T2 sequence (P11229 whole entry): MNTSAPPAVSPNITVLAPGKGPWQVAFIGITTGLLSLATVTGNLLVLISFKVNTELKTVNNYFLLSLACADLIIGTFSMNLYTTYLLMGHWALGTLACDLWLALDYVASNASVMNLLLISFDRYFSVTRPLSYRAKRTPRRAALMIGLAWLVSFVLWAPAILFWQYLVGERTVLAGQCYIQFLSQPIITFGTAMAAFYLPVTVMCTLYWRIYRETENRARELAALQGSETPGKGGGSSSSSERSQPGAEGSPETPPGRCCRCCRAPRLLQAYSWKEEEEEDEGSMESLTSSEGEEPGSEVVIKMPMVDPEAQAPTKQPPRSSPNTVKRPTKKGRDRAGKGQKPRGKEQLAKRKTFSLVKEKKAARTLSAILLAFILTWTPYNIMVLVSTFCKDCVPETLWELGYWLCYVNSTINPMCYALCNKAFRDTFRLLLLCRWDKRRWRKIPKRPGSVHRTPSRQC
Put plainly: Displacement of [3H]NMS from human muscarinic M1 receptor expressed in CHO-K1 cell membrane assessed as inhibition constant incubated for 90 mins by competitive radioligand binding assay. The format is cell membranes.

The target of data set [6] is Muscarinic acetylcholine receptor M2 and M5 (Homo sapiens) (UniProt P08172+P08912). Put plainly: Selectivity ratio of Ki for human muscarinic M2 receptor expressed in CHO-K1 cells to Ki for human muscarinic M5 receptor expressed in CHO-K1 cells. In kind it is cell-based.
The species named for data set [7] is Homo sapiens. Put plainly: Selectivity ratio of Ki for human muscarinic M1 receptor expressed in CHO-K1 cells to Ki for human muscarinic M5 receptor expressed in CHO-K1 cells. In kind it is cell-based.
A short description of data set [8]: Cytotoxicity against CHO-K1 cells expressing human muscarinic receptor M1 incubated for 72 hrs by MTT assay. In kind it is toxicity, cell-based. As to conditions: Chinese hamster (Cricetulus griseus).
Data set [9] can be described thus: Lipophilicity, log P of compound at pH 7.4 by HPLC analysis. In kind it is physicochemical. As to conditions: buffer.
For data set [10], the target named is T3, Muscarinic acetylcholine receptor M4 (Homo sapiens, UniProt P08173).
T3 sequence (P08173 whole entry): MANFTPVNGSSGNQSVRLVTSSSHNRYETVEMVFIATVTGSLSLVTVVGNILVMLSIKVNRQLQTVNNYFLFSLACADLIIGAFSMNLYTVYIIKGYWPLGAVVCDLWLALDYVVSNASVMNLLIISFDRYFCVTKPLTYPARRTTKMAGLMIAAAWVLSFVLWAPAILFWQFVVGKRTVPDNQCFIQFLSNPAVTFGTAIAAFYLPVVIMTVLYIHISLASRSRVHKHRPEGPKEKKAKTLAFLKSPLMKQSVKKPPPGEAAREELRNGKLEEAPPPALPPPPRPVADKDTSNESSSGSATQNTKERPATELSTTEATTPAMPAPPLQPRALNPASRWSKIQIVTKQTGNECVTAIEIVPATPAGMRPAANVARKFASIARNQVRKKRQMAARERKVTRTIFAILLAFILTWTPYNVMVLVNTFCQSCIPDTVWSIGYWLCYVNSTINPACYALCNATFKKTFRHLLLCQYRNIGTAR
Put plainly: Displacement of [3H]NMS from human muscarinic M4 receptor expressed in CHO-K1 cell membrane assessed as inhibition constant incubated for 90 mins by competitive radioligand binding assay. In kind it is cell membranes.

The target of data set [11] is T4, Muscarinic acetylcholine receptor M5 (Homo sapiens, UniProt P08912).
T4 sequence (P08912 whole entry): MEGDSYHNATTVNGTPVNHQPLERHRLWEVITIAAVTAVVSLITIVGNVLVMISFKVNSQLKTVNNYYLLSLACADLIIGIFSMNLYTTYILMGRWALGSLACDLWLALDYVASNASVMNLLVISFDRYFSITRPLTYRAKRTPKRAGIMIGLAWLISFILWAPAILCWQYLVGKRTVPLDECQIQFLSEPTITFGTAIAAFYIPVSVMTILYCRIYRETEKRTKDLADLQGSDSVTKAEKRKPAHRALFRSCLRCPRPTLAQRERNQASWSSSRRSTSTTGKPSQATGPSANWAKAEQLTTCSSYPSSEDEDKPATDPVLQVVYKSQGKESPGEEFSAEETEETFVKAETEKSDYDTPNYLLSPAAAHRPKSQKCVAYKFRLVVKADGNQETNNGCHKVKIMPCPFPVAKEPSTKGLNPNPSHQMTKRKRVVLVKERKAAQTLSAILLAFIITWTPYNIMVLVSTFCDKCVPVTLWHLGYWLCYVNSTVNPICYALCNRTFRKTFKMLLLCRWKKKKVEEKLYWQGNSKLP
Nature of the data set: Displacement of [3H]NMS from human muscarinic M5 receptor expressed in CHO-K1 cell membrane assessed as inhibition constant incubated for 90 mins by competitive radioligand binding assay. In kind it is cell membranes.

The species entered for data set [12] is Homo sapiens. Nature of the data set: Selectivity ratio of Ki for human muscarinic M4 receptor expressed in CHO-K1 cells to Ki for human muscarinic M3 receptor expressed in CHO-K1 cells. In kind it is cell-based.
For data set [13], the target named is Muscarinic acetylcholine receptors; M2 & M3 (Homo sapiens) (UniProt P20309+P08172). Put plainly: Selectivity ratio of Ki for human muscarinic M2 receptor expressed in CHO-K1 cells to Ki for human muscarinic M3 receptor expressed in CHO-K1 cells. The format is cell-based.
The species named for data set [14] is Homo sapiens. Nature of the data set: Selectivity ratio of Ki for human muscarinic M5 receptor expressed in CHO-K1 cells to Ki for human muscarinic M3 receptor expressed in CHO-K1 cells. The format is cell-based.
The target in data set [15] is Muscarinic acetylcholine receptor M1 and M3 (Homo sapiens) (UniProt P20309+P11229). Nature of the data set: Selectivity ratio of Ki for human muscarinic M1 receptor expressed in CHO-K1 cells to Ki for human muscarinic M3 receptor expressed in CHO-K1 cells. The format is cell-based.
The target in data set [16] is T5, Muscarinic acetylcholine receptor M1 (Homo sapiens) (UniProt P11229).
T5 sequence (whole entry): T2 sequence (P11229 whole entry)
Put plainly: Agonist activity at human muscarinic M1 receptor expressed in CHO-K1 cell membrane upto 100 uM by fluorescence based assay. The format is functional, cell membranes.

Data set [17] concerns the target T5, Muscarinic acetylcholine receptor M1 (Homo sapiens). Put plainly: Antagonist activity at human muscarinic M1 receptor expressed in CHO-K1 cell membrane assessed as reduction in carbachol-induced ca2+ influx by fluorescence based assay. In kind it is functional, cell membranes. As to conditions: filed as antagonist.

Muscarinic acetylcholine receptor M3, sequence (P20309 whole entry): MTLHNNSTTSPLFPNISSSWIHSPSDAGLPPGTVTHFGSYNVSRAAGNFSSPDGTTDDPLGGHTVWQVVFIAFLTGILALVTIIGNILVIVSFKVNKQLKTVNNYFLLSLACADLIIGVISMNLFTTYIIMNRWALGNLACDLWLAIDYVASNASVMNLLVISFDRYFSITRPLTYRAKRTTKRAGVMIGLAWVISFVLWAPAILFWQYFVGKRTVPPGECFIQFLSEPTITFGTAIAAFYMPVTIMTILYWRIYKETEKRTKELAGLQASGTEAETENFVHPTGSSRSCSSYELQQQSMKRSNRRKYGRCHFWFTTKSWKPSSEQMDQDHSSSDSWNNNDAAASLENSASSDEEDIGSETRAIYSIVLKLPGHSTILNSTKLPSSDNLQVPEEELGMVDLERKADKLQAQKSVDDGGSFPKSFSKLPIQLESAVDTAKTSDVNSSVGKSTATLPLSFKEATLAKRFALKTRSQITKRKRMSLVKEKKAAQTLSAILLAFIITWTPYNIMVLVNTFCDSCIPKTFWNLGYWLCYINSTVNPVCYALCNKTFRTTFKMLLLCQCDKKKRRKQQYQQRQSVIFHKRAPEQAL
Muscarinic acetylcholine receptors; M2 & M3 (Homo sapiens), sequence (P20309 whole entry, looked up, one chain of several): as the sequence (P20309 whole entry) above
Muscarinic acetylcholine receptor M1 and M3 (Homo sapiens), sequence (P20309 whole entry, looked up, one chain of several): as the sequence (P20309 whole entry) above

In general, Ki refers to a dissociation constant, usually derived from enzyme kinetics or from competition with a known ligand. What is called IC50 is the concentration that inhibits the measured activity by half. Usually logP stands for the decadic logarithm of the partition coefficient of the neutral form, usually between octanol and water. The low end stands for a more hydrophilic compound, the high end for a more lipophilic compound. Take `c1ccc(-n2c(O[C@H]3CN4CCC3CC4)nc3ccccc32)cc1`: the Ki in data set [1] was found to be 70 nM; in [3], 3.7 nM; in data set [5], 16 nM; in [10], 9.4 nM; in data set [11], 2.6 nM. The Ratio Ki (in the data set listed under Homo sapiens [2]; in the data set filed under Homo sapiens [4]; in data set [6]; in the data set filed under Homo sapiens [7]) was 1.4 throughout. In data set [8], the IC50 at 72 h was at least 100000 nM. The same compound came in with a logP in data set [9] of 1.2.

Take `CN1[C@@H]2CC[C@H]1C[C@@H](Oc1nc3ccccc3n1-c1ccccc1)C2`: the inhibition constant (Ki) in data set [1] was 442 nM; in data set [3], 46 nM; in data set [5], 101 nM; in data set [10], 201 nM; in data set [11], above 1000 nM. The Ratio Ki (in the data set filed under Homo sapiens [12]; in [13]; in the data set filed under Homo sapiens [14]; in data set [15]) was 2.5 each time. In [8], this compound yielded an IC50 at 72 h of at least 100000 nM. The compound further displayed a logP in data set [9] of 2.73.

Take `CN1CCC(Oc2nc3ccccc3n2-c2ccccc2)C1` (racemic): the Ki worked out at 258 nM in [1]; 60 nM in data set [3]; 51 nM in data set [5]; 65 nM in data set [10]; 14 nM in data set [11]. Besides, the Ratio Ki in the data set listed under Homo sapiens [2] worked out at 4; in the data set filed under Homo sapiens [4], 4; in data set [6], 18; in the data set listed under Homo sapiens [7], 4. Moreover, in data set [16], the result was inactive. The Activity entry in data set [17] is “Dose-Dependent Effect”. This compound gave an IC50 at 72 h in data set [8] of at least 100000 nM. The lipophilicity (logP) in data set [9] was determined as 2.81.

For the compound `CN1CCC(OC(=O)N(c2ccccc2)c2ccccc2)C1` (stereo not drawn), the Ki is above 1000 nM in [1]; 123 nM in data set [3]; 217 nM in data set [5]; 156 nM in [10]; 105 nM in data set [11]. Also, the outcome in data set [16] was inactive. The Activity entry in [17] is “Dose-Dependent Effect”. Also, the 50% inhibitory concentration (IC50) at 72 h in data set [8] is at least 100000 nM. For the same compound, the logP in data set [9] came to 1.91.

Consider `CN1[C@@H]2CC[C@H]1C[C@H](Oc1nc3ccccc3n1-c1ccccc1)C2`, for which the Ki in data set [1] is 16 nM; in data set [3] it was 17 nM; in data set [5] it was 9 nM; in [10], 11 nM; in [11], 8.1 nM. Further, the result in [16] was inactive. In [17], the Activity result is “Dose-Dependent Effect”. For the same compound, in data set [8], the IC50 at 72 h is at least 100000 nM. Also, in data set [9], the logP is listed as 3.05.
